The text below walks through data of patent US20100184809A1, “Heterocyclic FXR Binding Compounds” (PHENEX PHARMACEUTICALS AG, priority 2006, published 2010).

Series [1] in a line: Rat hepatocyte stability assay. The series is classed as in vitro ADME. The following applies: hepatocytes, 37° C., 60 minute, read-out: Rat hepatocyte clearance. Here is the method: Compound stability towards rat hepatocytes was determined as follows: The hepatocytes are incubated with the test compound at 37° C. Samples are removed at the appropriate time points into methanol to terminate the reaction. Following centrifugation, the supernatant is analysed by LC-MS/MS. The disappearance of test compound is monitored over a 60 minute time period. The In peak area ratio (compound peak area/internal standard peak area) is plotted against time and the gradient of the line determined. Finally, half life t1/2 and Intrinsic clearance CLint is computed by the following equations: elimination rate konstant (k)=−gradient; t1/2 (min)=0.693/k; V (μl/10^6 cells)=volume of incubation (μl)/number of cells (*10^6); CLint (μl/min/10^6cells protein)=V*0.693/t1/2.

In series [2] the target is T1, human FXRalpha ligand binding domain (LBD) (Homo sapiens, UniProt Q96RI1).
T1 construct: made in house; host or cells: E. coli BL21(DE3), vector pDEST15
T1 sequence (Q96RI1 187-472 isoform Q96RI1-2): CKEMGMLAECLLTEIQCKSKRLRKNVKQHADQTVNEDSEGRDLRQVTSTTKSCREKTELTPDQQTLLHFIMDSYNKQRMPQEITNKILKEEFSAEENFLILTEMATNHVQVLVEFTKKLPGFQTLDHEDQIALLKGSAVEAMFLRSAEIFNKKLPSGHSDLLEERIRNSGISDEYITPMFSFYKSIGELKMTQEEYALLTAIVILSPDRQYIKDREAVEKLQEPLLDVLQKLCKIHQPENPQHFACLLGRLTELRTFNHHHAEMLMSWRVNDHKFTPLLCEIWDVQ
The series is described as follows: FRET activity assay (ligand mediated cofactor peptide interaction, LANCE). The series is classed as biochemical. The following applies: GST-FXR-LBD / biotinylated SRC-1 peptide (676-700). The procedure:
Determination of a ligand mediated cofactor peptide interaction to quantify ligand binding to the nuclear receptor Farnesoid X Receptor (FXR) was performed as follows:
Preparation of human farnesoid X receptor (FXR) alpha ligand binding domain: The human FXRalpha ligand binding domain (LBD) was expressed in E. coli strain BL21(DE3) as an N-terminally glutathione-[…] (GST) tagged fusion protein. The DNA encoding the FXR ligand binding domain was cloned into vector pDEST15 (Invitrogen). Expression was under control of an IPTG inducible T7 promoter. The amino acid boundaries of the ligand binding domain were amino acids 187-472 of Database entry NM_005123 (RefSeq). Expression and purification of the FXR-LBD: An overnight preculture of a transformed E. coli strain was diluted 1:20 in LB-Ampicillin medium and grown at 30° C. to an optical density of OD600=0.4-0.6. Gene expression was then induced by addition of 0.5 mM IPTG. Cells were incubated an additional 6 h at 30° C., 180 rpm. Cells were collected by centrifugation (7000×g, 7 min, room temperature). Per liter of original cell culture, cells were resuspended in 10 ml lysis buffer (50 mM Glucose, 50 mM Tris pH 7.9, 1 mM EDTA and 4 mg/ml lysozyme) and left on ice for 30 min. Cells were then subjected to sonication and cell debris removed via centrifugation (22000×g, 30 min, 4° C.). Per 10 ml of supernatant 0.5 ml prewashed Glutathione 4B sepharose slurry (Qiagen) was added and the suspension kept slowly rotating for 1 h at 4° C. Glutathione 4B sepharose beads were pelleted by centrifugation (2000 g, 15 sec, 4° C.) and washed twice in wash buffer (25 mM Tris, 50 mM KCl, 4 mM MgCl2 and 1M NaCl). The pellet was resuspended in 3 ml elution buffer per liter of original culture (elution buffer: 20 mM Tris, 60 mM KCl, 5 mM MgCl2 and 80 mM glutathione added immediately prior to use as powder). The suspension was left rotating for 15 min at 4° C., the beads pelleted and eluted again with half the volume of elution buffer than the first time. The eluates were pooled and dialysed overnight in 20 mM Hepes buffer (pH 7.5) containing 60 mM KCl, 5 mM MgCl2 as well as 1 mM dithiothreitol and 10% (v/v) glycerol. The protein was analysed by SDS-Page.
The method measures the ability of putative ligands to modulate the interaction between the purified bacterial expressed FXR ligand binding domain (LBD) and a synthetic biotinylated peptide based on residues 676-700 of SRC-1 (LCD2, 676-700). The sequence of the peptide used was B-[…]-COOH where the N-terminus was biotinylated (B). The ligand binding domain (LBD) of FXR was expressed as fusion protein with GST in BL-21 cells using the vector pDEST15. Cells were lysed by sonication, and the fusion proteins purified over glutathione sepharose (Pharmacia) according to the manufacturers instructions. For screening of compounds for their influence on the FXR-peptide interaction, the Perkin Elmer LANCE technology was applied. This method relies on the binding dependent energy transfer from a donor to an acceptor fluorophor attached to the binding partner of interest. For ease of handling and reduction of background from compound fluorescence LANCE technology makes use of generic fluorophore labels and time resolved detection Assays were done in a final volume of 2 5 μl in a 384 well plate, in a Tris-based buffer (20 mM Tris-HCl pH 7,5; 60 mM KCl, 5 mM MgCl2; 35 ng/μl BSA), containing 20-60 ng/well recombinantly expressed FXR-LBD fused to GST, 200-600 nM N-terminally biotinylated peptide, representing SRC1 aminoacids 676-700, 200 ng/well Streptavidin-xIAPC conjugate(Prozyme) and 6-10 ng/well Eu W1024 antiGST (Perkin Elmer). DMSO content of the samples was kept at 1%. After generation of the assay mix and diluting the potentially FXR modulating ligands, the assay was equilibrated for one hour in the dark at room temperature in FIA-plates black 384 well (Greiner). […]
(In general: Time-resolved FRET reads energy transfer from a long-lived donor to a nearby acceptor.)

Series [3] can be described thus: Plasma protein binding assay (equilibrium dialysis). The series is classed as in vitro ADME. The following applies: 37° C., extrapolated fraction unbound. The procedure: Equilibrium dialysis is used to determine the extent of binding of a compound to plasma proteins. A semi-permeable membrane separates a protein-containing compartment from a protein-free compartment. The system is allowed to equilibrate at 37° C. The test compound present in each compartment is quantified by LC-MS/MS. The extent of binding is reported as a fraction unbound (fu) value which is calculated as fu=1−(PC−PF)/PC. PC=Test compound concentration in protein-containing compartment. PF=Test compound concentration in protein-free compartment. In addition to using whole plasma, the plasma protein binding assay can be performed using two other ratios of plasma (10% or 50% plasma in buffer v/v). The following equations are used to convert from a fraction unbound at 10% or 50% to a fraction unbound at 100%: […]

The nature of series [4]: Rat microsomal stability assay. In kind it is in vitro ADME. The following applies: liver microsomes, 37° C., NADPH, 45 minute, read-out: Rat liver microsome clearance. The procedure:
Compound stability towards rat liver microsomes was determined as follows: The microsomes are incubated with the test compound at 37° C. in the presence of the co-factor, NADPH, which initiates the reaction. The reaction is terminated by the addition of methanol. Following centrifugation, the supernatant is analysed on the LC-MS/MS. The disappearance of test compound is monitored over a 45 minute time period. The In peak area ratio (compound peak area/internal standard peak area) is plotted against time and the gradient of the line determined. Finally, Intrinsic clearance CLint is computed by the following equations: elimination rate konstant (k)=−gradient; t1/2 (min)=0.693/k; V (μl/mg)=volume of incubation (μl)/protein in incubation (mg); CLint (μl/min/mg protein)=V*0.693/t1/2.
A general note: Liver microsomes are vesicles of endoplasmic reticulum, rich in cytochrome P450 enzymes.

The nature of series [5]: Aqueous solubility assay, Protocol A, nephelometry method. In kind it is physicochemical. The following applies: PBS with 5% DMSO, aqueous with cosolvent or surfactant or cyclodextrin, kinetic from dmso stock, PBS pH 7.4, 5% DMSO, 23° C., 24 hours, read-out: Aqueous solubility pH 7.4. Here is the method:
Aqueous solubility of compounds was determined by nephelometry or by the shake-flask method as follows:
Protocol A, nephelometry method:
Solubility of compounds was measured in PBS (pH 7.4), 5% DMSO at 23° C. Nepheloskan Ascent (Thermo Electron Corporation) nephelometer was used for measurement of light scattering. Tested compounds were dissolved in DMSO to 10 mM. Prior to measurement the compounds were further diluted with PBS in the wells to final compound concentrations of 100, 70, 50, 35, 25, 17, 12 and <10 μg/ml.
The plates were incubated at room temperature for 24 hours to reach equilibrium and the scattered light was measured. Assay validation: Aqueous solubility of acetylsalicylic acid was determined to validate the assay.
The following compounds of Table 2 exemplify such solubility with “−−” meaning solubility<2 μM, “+” meaning 2 μM solubility 100 μM and “++” meaning solubility

A short description of the next series: Caco-2 permeability. In kind it is in vitro ADME. The following applies: human, apical to basolateral. Here is the method: Caco-2 cells are widely used as an in vitro model for predicting human drug absorption. The Caco-2 cell line is derived from a human colorectal carcinoma, and when cultured, the cells spontaneously differentiate into monolayers of polarised enterocytes. The cells are seeded on Transwell™ plates and form a confluent monolayer over 20 days prior to the experiment. On day 20, the test compound is added to the apical side of the membrane and the transport of the compound across the monolayer is monitored over a 2 hour time period. To study drug efflux, it is also necessary to investigate transport of the compound from the basolateral compartment to the apical compartment. The permeability coefficient (Papp) is calculated from the following equation: […]
Where dQ/dt is the rate of permeation of the drug across the cells, CO is the donor compartment concentration at time zero and A is the area of the cell monolayer.

Series [6] in a line: Aqueous solubility assay, Protocol B, shake-flask method. The series is classed as physicochemical. The following applies: aqueous buffer, 10 mM PBS buffer pH 7.4, 1% MeOH, room temperature, read-out: Aqueous solubility pH 7.4 (μM) (±standard deviation), shake-flask method. The procedure: Protocol B, shake-flask method:
Sample preparation: Sample and standard solution preparation is performed by mixing equal volumes of acetonitrile containing the internal standard (1 μM final concentration) with sample and calibration standard solutions (100 μl). After vigorously shaking (10 seconds) the samples are centrifuged (6000 g) for 5 minutes at 20° C. Aliquots of the particle-free supernatants are transferred to 200 μl sample vials and subsequently subjected to LC-MS/MS. Assay procedure: Test concentration was 100 μM in 10 mM PBS buffer pH 7.4 with a final MeOH concentration of 1%. The volume of the incubation solution was 500 μl. Depending on each compound's solubility in MeOH, the stock concentration and the incubation concentration was adapted. The test solutions in quadruplicates were shaken at 300 rpm over a 20 hours period at room temperature, followed by centrifugation at 20000 g for 30 minutes to separate the solid phase. 100 μl of particle free sample are added to 100 μl acetonitrile containing the internal standard. The aqueous solubility of the compounds was determined by measuring the concentration of the PBS buffer supernatant by HPLC-MS/MS.

Converted amounts (≈) assume the structure as drawn. Some results are limits rather than exact numbers.

Regarding `CC(C)c1onc(-c2c(Cl)cccc2Cl)c1COc1ccc(N(C)C(=O)c2ccc(-c3nnn[nH]3)cc2)c(C(F)(F)F)n1` [Example 25, N-(6-((3-(2,6-Dichlorophenyl)-5-isopropylisoxazol-4-yl)methoxy)-2-(trifluoromethyl)pyridin-3-yl)-N-methyl-4-(1H-tetrazol-5-yl)benzamide], in series [1], the hepatocyte CLint was 2.5 µL/min/1e6 cells. The IC50 (commonly the concentration at which inhibition is half-maximal) in series [2] was no more than 1000 nM. Further, the fraction unbound (in general, the share of the substance not bound to proteins or other matrix) in series [3] was 0.0004. Besides, the microsomal CLint in series [4] worked out at 169 µL/min/mg.
The compound `CC(C)c1onc(-c2c(Cl)cccc2Cl)c1COc1ccc(NC(=O)c2ccc(C(=O)O)cc2)c(C(F)(F)F)n1` [Example 6, N-{6-[3-(2,6-dichloro-phenyl)-5-isopropyl-isoxazol-4-ylmethoxy]-2-trifluoromethyl-pyridin-3-yl}-terephthalamic acid] returned a half-maximal inhibitory concentration (IC50) in series [2] of no more than 1000 nM. Besides, the unbound share (fraction unbound) in series [3] is 0.0005. For the same compound, the solubility (as a rule, how much of the substance goes into solution per volume) at 24 h in series [5] was greater than 100 µM. The Papp A→B – broadly, how fast a substance crosses the layer from the apical side – at 2 h in the series “Caco-2 permeability” was determined as 34 ×10⁻⁶ cm/s.
Compound `CC(C)c1onc(-c2c(Cl)cccc2Cl)c1COc1cnc(N(C)Cc2cccc(C(=O)O)c2)c(Cl)c1` [Example 32, 3-(((3-Chloro-5-((3-(2,6-dichlorophenyl)-5-isopropylisoxazol-4-yl)methoxy)pyridin-2-yl)(methyl)amino)methyl)benzoic acid] displayed an IC50 in series [2] of no more than 1000 nM. The solubility at 20 h in series [6] was determined as 129 µM (≈ 72.4 µg/mL).
